Experiment [1] concerns β-galactosidase (β-Gal). Conditions: three 12-hour desiccation cycles; 25 equivalents of trehalose; FIG. 12b.
Method: The stabilization of β-Gal against lyophilization stress was also measured. […] The activity of β-Gal was determined by reaction with ortho-nitrophenol galactose (ONPG). When incubated with β-Gal, release of the yellow-colored o-nitrophenol from ONPG can be monitored at 405 nm.
The activity of β-Gal was determined by reaction with ortho-nitrophenol galactose (ONPG). When incubated with β-Gal, release of the yellow-colored o-nitrophenol from ONPG can be monitored at 405 nm.
Lyophilization studies with β-galactosidase were carried out as previously described; β-Gal was subjected to three 12 hour lyophliization cycles before dilution. Activity was assayed by monitoring the hydrolysis of o-nitrophenol galactose (ONPG) at 405 nm.
The target of experiment [2] is lysozyme (Gallus gallus, UniProt P00698). As to the kind of experiment: Stabilization of lysozyme against heat stress with trehalose-CL as excipient. Type of experiment: biochemical. The conditions noted are these: lysozyme 0.02 mg/mL heated to 90° C. for 20 minutes; additive 5 to 25 wt eq.; FIG. 12a. The procedure: Stabilization of model proteins using trehalose-caprolactone as excipient. The ability of these biodegradable trehalose polymers to stabilize proteins was confirmed through heat and lyophilization stress assays. […] Therefore, these proteins were also selected to test the biodegradable trehalose polymers. First, lysozyme was stressed by heating to 90° C. for 20 minutes.
Chain of lysozyme (P00698 19-147): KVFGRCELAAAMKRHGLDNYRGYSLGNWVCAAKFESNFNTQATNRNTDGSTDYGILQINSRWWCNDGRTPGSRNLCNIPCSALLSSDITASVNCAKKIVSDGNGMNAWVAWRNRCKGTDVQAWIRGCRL
Trehalose-CL and a styrenyl ether trehalose (SET) polymer previously described were also directly compared in their stabilization of lysozyme (FIG. 13) (Lee et al., 2013). […] Thus, the degradable trehalose glycopolymer was similar in stabilization ability to the non-degradable version.

For `OC[C@H]1O[C@H](O[C@H]2O[C@H](CO)[C@@H](O)[C@H](O)[C@H]2O)[C@H](O)[C@@H](O)[C@@H]1O` [trehalose], the “β-Gal native activity maintained after lyophilization stress, 25 equivalents of additive” value in experiment [1] is “up to 67%”. In addition, the “lysozyme native activity retained after heat stress” value in experiment [2] was “not significantly different from the negative control”.

Source of the values: patent US10899879B2, “Biodegradable trehalose glycopolymers” (THE REGENTS OF THE UNIVERSITY OF CALIFORNIA, priority 2014, dated 2021).
